Data: ChEMBL document CHEMBL1955765, “Wake-promoting agents: search for next generation modafinil: part II” (Bioorg Med Chem Lett, 2012)

What was measured:
[1] = molecular target: Transporter (Rattus norvegicus) (UniProt Q63380); experiment: Inhibition of rat NET at 10 uM
[2] = molecular target: Sodium-dependent serotonin transporter (Rattus norvegicus) (UniProt P31652); experiment: Inhibition of rat SERT at 10 uM
[3] = molecular target: T1, Sodium-dependent dopamine transporter (Rattus norvegicus, UniProt P23977); experiment: Inhibition of rat DAT
[4] = molecular target: T1, Sodium-dependent dopamine transporter; experiment: Inhibition of rat DAT-mediated uptake
Transporter = Transporter (Rattus norvegicus, UniProt Q63380); experiment: Inhibition of rat NET-mediated uptake
[5] = molecular target: Sodium-dependent serotonin transporter (Rattus norvegicus, UniProt P31652); experiment: Inhibition of rat SERT-mediated uptake
Cytochrome P450 2C19 = Cytochrome P450 2C19 (Homo sapiens, UniProt P33261); experiment: Inhibition of CYP2C19 in human microsome; type: ADME
Cytochrome P450 3A4 = Cytochrome P450 3A4 (Homo sapiens, UniProt P08684); experiment: Inhibition of CYP3A4 in human microsome; type: ADME
Cytochrome P450 3A5 = Cytochrome P450 3A5 (Homo sapiens, UniProt P20815); experiment: Inhibition of CYP3A5 in human microsome; type: ADME
Cytochrome P450 2D6 = Cytochrome P450 2D6 (Homo sapiens, UniProt P10635); experiment: Inhibition of CYP2D6 in human microsome; type: ADME
Cytochrome P450 2C9 = Cytochrome P450 2C9 (Homo sapiens, UniProt P11712); experiment: Inhibition of CYP2C9 in human microsome; type: ADME
Cytochrome P450 1A1 = molecular target: T2, Cytochrome P450 1A1 (Homo sapiens, UniProt P04798); experiment: (§1) Inhibition of CYP1A1 in human microsome at 100 uM; type: ADME, microsomes; details: microsomes, 100 µM
T2 sequence (P04798 whole entry): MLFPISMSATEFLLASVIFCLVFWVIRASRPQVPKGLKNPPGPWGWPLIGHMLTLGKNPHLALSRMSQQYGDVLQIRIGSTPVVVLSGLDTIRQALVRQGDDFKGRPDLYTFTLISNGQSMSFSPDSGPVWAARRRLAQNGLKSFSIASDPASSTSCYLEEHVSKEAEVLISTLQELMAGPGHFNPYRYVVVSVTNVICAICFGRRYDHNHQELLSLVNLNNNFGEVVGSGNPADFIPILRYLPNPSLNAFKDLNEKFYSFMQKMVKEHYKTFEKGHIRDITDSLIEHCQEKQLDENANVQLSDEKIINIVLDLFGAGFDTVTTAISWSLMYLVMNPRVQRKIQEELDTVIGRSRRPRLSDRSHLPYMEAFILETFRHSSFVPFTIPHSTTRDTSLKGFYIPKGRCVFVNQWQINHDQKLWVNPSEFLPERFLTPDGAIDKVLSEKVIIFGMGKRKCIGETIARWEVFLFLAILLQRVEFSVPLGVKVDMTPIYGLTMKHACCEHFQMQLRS

Cytochrome P450 1A2 = molecular target: T3, Cytochrome P450 1A2 (Homo sapiens, UniProt P05177); experiment: (§2) Inhibition of CYP1A2 in human microsome at 100 uM; type: ADME, microsomes; details: microsomes, 100 µM
T3 sequence (P05177 whole entry): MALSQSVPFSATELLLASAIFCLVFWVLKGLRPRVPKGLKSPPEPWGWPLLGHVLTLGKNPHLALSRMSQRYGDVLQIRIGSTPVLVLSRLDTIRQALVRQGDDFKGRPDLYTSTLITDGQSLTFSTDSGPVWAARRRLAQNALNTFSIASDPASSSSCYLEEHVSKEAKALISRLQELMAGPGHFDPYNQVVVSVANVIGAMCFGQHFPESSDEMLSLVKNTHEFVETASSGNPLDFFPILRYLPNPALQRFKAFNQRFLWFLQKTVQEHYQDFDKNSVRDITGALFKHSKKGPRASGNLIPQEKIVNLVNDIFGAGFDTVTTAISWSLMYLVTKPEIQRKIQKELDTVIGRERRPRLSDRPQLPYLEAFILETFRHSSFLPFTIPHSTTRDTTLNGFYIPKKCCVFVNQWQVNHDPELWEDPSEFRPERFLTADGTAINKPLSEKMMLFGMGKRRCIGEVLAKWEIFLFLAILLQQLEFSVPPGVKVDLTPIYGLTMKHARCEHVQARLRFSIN

Rattus norvegicus = experiment: Wake promoting activity in Sprague-Dawley rat assessed as increase of wake duration at 100 mg/kg, ip after 4 hrs (reference value: 79.2 +/- 7.2 mins); type: functional; details: route intraperitoneal
CYP1A1 = molecular target: T4, CYP1A1 (Homo sapiens, UniProt P04798); experiment: as §1; type: ADME, microsomes; details: human microsomes
T4 sequence (P04798 whole entry): T2 sequence (P04798 whole entry)

CYP1A2 = molecular target: T5, CYP1A2 (Homo sapiens, UniProt P05177); experiment: as §2; type: ADME, microsomes; details: human microsomes
T5 sequence (P05177 whole entry): T3 sequence (P05177 whole entry)

T1 sequence (P23977 whole entry): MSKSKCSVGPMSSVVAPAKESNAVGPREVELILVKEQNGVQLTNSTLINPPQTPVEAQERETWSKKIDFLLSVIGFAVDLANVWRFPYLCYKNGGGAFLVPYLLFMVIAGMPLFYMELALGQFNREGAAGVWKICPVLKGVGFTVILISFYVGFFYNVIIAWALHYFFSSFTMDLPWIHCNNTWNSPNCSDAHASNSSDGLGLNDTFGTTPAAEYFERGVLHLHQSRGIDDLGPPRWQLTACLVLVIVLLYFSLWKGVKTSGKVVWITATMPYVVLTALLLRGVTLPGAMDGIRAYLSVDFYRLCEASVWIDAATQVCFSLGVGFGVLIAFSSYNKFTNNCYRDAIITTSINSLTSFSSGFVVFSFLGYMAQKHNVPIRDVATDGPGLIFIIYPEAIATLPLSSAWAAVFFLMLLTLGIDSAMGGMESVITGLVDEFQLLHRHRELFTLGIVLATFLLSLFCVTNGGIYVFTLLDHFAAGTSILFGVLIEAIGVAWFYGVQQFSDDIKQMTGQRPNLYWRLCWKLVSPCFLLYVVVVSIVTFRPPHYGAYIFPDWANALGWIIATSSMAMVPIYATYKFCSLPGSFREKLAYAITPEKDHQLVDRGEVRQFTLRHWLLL
Cytochrome P450 2D6, sequence (P10635 whole entry): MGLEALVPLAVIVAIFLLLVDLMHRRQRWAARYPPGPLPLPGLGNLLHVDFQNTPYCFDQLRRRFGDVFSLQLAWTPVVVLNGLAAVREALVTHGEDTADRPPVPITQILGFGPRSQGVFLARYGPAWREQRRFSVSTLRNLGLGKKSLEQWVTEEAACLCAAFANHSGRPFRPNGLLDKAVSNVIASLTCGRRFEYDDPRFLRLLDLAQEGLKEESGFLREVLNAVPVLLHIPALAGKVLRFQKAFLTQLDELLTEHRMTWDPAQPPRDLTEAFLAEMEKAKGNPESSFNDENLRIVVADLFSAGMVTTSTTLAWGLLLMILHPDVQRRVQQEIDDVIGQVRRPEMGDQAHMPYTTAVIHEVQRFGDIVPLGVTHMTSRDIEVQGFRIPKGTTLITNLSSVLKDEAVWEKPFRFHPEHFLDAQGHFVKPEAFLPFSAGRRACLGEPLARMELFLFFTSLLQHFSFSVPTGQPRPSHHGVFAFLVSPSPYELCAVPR
Transporter, sequence (Q63380 whole entry): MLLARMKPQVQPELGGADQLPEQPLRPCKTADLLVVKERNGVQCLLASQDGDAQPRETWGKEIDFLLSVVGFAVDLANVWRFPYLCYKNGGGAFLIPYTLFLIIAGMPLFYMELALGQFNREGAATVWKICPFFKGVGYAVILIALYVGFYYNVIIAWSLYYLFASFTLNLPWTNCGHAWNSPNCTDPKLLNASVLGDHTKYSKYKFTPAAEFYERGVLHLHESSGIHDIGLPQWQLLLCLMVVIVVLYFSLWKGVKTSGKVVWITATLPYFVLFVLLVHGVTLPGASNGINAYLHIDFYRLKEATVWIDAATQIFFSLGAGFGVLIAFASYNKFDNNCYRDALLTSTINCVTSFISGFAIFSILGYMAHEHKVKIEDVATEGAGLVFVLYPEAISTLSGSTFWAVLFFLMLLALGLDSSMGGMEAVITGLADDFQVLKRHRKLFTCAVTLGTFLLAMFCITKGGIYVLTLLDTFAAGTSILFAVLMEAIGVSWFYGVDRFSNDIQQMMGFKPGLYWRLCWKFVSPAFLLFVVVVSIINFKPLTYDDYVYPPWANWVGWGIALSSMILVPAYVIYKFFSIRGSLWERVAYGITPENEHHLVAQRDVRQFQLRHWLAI
Transporter (Rattus norvegicus), sequence (Q63380 as listed by the source): as the sequence (Q63380 whole entry) above
Cytochrome P450 3A4, sequence (P08684 whole entry): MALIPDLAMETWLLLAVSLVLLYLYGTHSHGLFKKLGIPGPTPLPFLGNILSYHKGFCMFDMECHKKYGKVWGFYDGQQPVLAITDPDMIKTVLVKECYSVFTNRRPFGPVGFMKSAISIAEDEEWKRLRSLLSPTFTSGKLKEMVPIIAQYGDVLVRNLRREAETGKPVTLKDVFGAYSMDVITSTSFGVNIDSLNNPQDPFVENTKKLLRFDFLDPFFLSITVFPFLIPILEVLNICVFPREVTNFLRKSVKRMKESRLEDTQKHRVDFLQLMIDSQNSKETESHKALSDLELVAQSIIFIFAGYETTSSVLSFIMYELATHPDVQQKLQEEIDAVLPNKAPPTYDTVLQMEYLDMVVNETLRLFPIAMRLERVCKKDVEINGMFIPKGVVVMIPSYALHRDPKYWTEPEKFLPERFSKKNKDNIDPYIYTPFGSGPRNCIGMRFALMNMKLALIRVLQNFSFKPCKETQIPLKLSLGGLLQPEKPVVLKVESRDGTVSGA
Cytochrome P450 3A5, sequence (P20815 whole entry): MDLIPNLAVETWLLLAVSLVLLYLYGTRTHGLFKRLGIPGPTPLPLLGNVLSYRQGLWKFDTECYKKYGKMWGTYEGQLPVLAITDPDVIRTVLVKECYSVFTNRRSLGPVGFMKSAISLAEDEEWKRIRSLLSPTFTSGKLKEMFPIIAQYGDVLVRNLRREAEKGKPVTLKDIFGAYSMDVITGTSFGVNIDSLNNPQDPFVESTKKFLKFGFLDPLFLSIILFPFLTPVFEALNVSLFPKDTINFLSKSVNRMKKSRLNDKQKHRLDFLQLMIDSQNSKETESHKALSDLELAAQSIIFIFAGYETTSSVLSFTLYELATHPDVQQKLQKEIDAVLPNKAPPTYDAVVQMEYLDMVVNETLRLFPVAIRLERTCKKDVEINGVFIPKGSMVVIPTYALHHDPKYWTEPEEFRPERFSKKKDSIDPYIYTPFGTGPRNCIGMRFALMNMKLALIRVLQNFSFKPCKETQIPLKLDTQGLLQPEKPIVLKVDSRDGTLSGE
Sodium-dependent serotonin transporter (Rattus norvegicus), sequence (P31652 whole entry): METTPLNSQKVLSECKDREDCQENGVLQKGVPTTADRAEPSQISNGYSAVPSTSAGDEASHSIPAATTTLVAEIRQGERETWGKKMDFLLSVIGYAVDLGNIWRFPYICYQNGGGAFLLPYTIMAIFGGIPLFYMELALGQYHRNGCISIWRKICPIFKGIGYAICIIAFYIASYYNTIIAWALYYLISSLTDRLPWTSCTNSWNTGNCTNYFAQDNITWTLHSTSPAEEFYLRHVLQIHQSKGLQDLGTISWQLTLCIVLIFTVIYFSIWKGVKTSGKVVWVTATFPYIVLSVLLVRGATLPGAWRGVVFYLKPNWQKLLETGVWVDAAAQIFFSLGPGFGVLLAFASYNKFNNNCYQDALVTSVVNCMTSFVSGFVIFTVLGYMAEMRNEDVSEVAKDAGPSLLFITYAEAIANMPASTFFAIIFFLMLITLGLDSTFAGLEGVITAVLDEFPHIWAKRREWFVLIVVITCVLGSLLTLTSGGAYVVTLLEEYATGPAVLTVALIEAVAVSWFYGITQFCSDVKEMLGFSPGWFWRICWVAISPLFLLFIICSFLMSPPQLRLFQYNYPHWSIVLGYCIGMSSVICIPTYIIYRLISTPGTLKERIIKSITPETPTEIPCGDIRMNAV
Sodium-dependent serotonin transporter, sequence (P31652 whole entry): as above
Cytochrome P450 2C19, sequence (P33261 whole entry): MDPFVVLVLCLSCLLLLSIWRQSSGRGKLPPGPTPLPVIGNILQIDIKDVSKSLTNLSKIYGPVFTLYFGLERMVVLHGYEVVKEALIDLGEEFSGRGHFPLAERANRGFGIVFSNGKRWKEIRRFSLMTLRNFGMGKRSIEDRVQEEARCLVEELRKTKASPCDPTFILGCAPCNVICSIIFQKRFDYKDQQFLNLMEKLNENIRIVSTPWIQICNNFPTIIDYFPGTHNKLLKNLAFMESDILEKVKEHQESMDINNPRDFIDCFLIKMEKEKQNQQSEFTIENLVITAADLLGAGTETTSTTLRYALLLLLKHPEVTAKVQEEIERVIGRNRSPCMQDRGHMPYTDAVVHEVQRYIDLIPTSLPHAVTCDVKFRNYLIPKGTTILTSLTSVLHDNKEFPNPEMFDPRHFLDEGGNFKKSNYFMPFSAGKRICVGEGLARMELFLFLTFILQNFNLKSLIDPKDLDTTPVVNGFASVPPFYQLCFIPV
Cytochrome P450 2C9, sequence (P11712 whole entry): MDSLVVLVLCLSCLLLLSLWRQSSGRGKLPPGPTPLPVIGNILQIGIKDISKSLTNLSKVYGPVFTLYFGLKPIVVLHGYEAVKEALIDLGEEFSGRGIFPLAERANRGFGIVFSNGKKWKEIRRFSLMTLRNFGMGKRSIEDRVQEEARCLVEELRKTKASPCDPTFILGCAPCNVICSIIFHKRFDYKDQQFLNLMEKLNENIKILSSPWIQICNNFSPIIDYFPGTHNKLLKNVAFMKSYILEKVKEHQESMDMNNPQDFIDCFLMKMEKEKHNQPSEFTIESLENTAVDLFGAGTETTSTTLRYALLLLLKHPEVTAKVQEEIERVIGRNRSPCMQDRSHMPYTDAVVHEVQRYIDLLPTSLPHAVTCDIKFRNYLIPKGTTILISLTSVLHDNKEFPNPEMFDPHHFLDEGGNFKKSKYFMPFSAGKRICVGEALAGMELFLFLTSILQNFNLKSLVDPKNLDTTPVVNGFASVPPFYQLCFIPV

Structure (SMILES)	inhibition [1] [%]	inhibition [2] [%]	IC50 [3] [nM]	IC50 [4] [µM]	IC50 (Transporter) [µM]	IC50 [5] [µM]	IC50 (Cytochrome P450 2C19) [µM]	IC50 (Cytochrome P450 3A4) [µM]	IC50 (Cytochrome P450 3A5) [µM]	IC50 (Cytochrome P450 2D6) [µM]	IC50 (Cytochrome P450 2C9) [µM]	inhibition (INH) (Cytochrome P450 1A1) [%]	inhibition (INH) (Cytochrome P450 1A2) [%]	Time (Rattus norvegicus) [min]	inhibition at 100 µM (CYP1A1) [%]	inhibition at 100 µM (CYP1A2) [%]
NC(=O)C[S+]([O-])Cc1ccccc1-c1ccc(Cl)cc1 (single isomer, unassigned; (+)) [listing 1 of 2 here]	12	4	–	–	–	–	–	–	–	–	–	–	–	–	–	–
NC(=O)C[S+]([O-])Cc1ccccc1-c1ccc(Cl)cc1 (single isomer, unassigned; (+)) [listing 2 of 2 here]	–	–	4200	3.8	32	> 300	112	159	159	151	129	20	20	227.1	–	–
NC(=O)C[S+]([O-])Cc1ccccc1-c1ccc(Cl)cc1 (single isomer, unassigned; (-)) [listing 1 of 2 here]	–	–	400	–	11	> 300	174	139	139	177	233	–	–	238.5	14	14
NC(=O)C[S+]([O-])Cc1ccccc1-c1ccc(Cl)cc1 (single isomer, unassigned; (-)) [listing 2 of 2 here]	16	3	–	–	–	–	–	–	–	–	–	–	–	–	–	–
